In patent US11292809B2, “Crystals of glycyrrhizic acid derivatives, crystalline compositions, pharmaceutical compositions and uses thereof” (CHIA TAI TIANQING PHARMACEUTICAL GROUP CO., LTD., priority 2018, dated 2022):

Assays:
[1] = tested on: liver-injury animal models induced by different hepatotoxic agents; conditions: cited from earlier work
[2] = Color and clarity of solution test; type: physicochemical; conditions: 0.5 g dissolved in 10 ml dilute ammonia solution (1→100)
Description: “Color and clarity of solution test” is particularly important, and also a required inspection item for active ingredients used in preparations for injection. Weigh 0.5 g of the crystalline form A obtained in example 5, dissolve it with 10 ml dilute ammonia solution (1→100), and the solution may be clear and colorless. If the solution is colored, compare it with the yellow 2 #standard color solution (Method 1, General Principles 0901, the Chinese Pharmacopoeia), and the former should not be intensely colored than the latter. If the solution is turbid, compare it with the turbidity 0.5 #standard solution (Method 1, General Principles 0902, the Chinese Pharmacopoeia), and the former should not be more intensely turbid than the latter.

[3] = Measurement of particle size and specific surface area; type: physicochemical
Text: For the purpose of this application, “X10” represents the particle diameter corresponding to 10% of the particle size distribution, in other words, cumulative 10% of the particles in all the tested particles are smaller than X10; “X50” represents the particle size corresponding to 50% of the particle size distribution, in other words, cumulative 50% of the particles in all the tested particles are smaller than X50; “X90” represents the particle size corresponding to 90% of the particle size distribution, in other words, cumulative 90% of the particles in all the tested particles are smaller than X90.
Sv and Sm denote specific surface areas, i.e., total surface area of a material per unit volume (Sv) and total surface area of a material per unit of mass (Sm) respectively.
Particle size distribution is determined according to the laser method using the instrument below: full-automatic dry-wet laser particle sizer, VIBRI (HELOSBR).

[4] = liver-injury animal models induced by different hepatotoxic agents
[5] = particle size distribution, laser method

| clarity test ([2]; compared with turbidity 0.5# standard solution) | color of solution test ([2]; compared with yellow 2# standard color solution) | X10 [3, 5] [μm] | X50 [3, 5] [μm] | X90 [3, 5] [μm] | Sm ([3]; specific surface area per unit of mass) [m^2/g] | Sv ([3]; specific surface area per unit volume) [m^2/cm^3] | SMILES | hepatocyte degeneration and necrosis and inflammatory cell infiltration [1, 4] | hepatocyte regeneration [1, 4] | serum transaminase elevation in animals [1, 4] | effect against liver injury compared with natural glycyrrhizic acids ([1]; versus natural glycyrrhizic acids) |
| --- | --- | --- | --- | --- | --- | --- | --- | --- | --- | --- | --- |
| – | – | – | – | – | – | – | CC1(C)[C@@H](O[C@H]2O[C@H](C(=O)[O-])[C@@H](O)[C@H](O)[C@H]2O[C@@H]2O[C@H](C(=O)[O-])[C@@H](O)[C@H](O)[C@H]2O)CC[C@]2(C)[C@H]3C(=O)C=C4[C@H]5C[C@@](C)(C(=O)O)CC[C@]5(C)CC[C@@]4(C)[C@]3(C)CC[C@@H]12.[Mg+2] [magnesium isoglycyrrhizinate] | alleviate | promote | significantly inhibit | obviously superior |
| The solution is clear, and less | The solution is colorless, and less | 6.19 | 42.18 | 91.80 | 0.64 | 0.44 | CC1(C)[C@@H](O[C@H]2O[C@H](C(=O)[O-])[C@@H](O)[C@H](O)[C@H]2O[C@@H]2O[C@H](C(=O)[O-])[C@@H](O)[C@H](O)[C@H]2O)CC[C@]2(C)[C@H]3C(=O)C=C4[C@H]5C[C@@](C)(C(=O)O)CC[C@]5(C)CC[C@@]4(C)[C@]3(C)CC[C@@H]12.[Mg+2] [crystalline form A, magnesium isoglycyrrhizinate] | – | – | – | – |
